According to patent publication US8512970B2, “Rapid bioluminescence detection assay” (The Secretary of State for Health, priority 2009, dated 2013):
“Also recorded” adds a separate entry of the source. Counter-ions that a name gives are not always drawn.

Assays:
[1] = molecular target: T1, yeast AK (AK from Saccharomyces cerevisiae) (Saccharomyces cerevisiae, UniProt P07170); experiment: Distinguishing reporter adenylate kinases from yeast adenylate kinase (FIG. 7B); format: biochemical
T1 construct: purchased Sigma
T1 sequence (P07170 whole entry): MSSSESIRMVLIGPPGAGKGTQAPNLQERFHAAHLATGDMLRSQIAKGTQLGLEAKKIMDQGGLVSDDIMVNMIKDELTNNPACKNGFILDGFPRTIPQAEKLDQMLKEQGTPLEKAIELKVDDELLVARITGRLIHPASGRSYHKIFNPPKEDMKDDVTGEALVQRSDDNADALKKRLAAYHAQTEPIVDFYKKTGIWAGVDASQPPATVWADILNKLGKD

luciferase = luciferase (Photinus pyralis, UniProt P08659); experiment: Effect of inhibitor on luciferase; format: biochemical
Chain of luciferase (P08659 whole entry, species assumed): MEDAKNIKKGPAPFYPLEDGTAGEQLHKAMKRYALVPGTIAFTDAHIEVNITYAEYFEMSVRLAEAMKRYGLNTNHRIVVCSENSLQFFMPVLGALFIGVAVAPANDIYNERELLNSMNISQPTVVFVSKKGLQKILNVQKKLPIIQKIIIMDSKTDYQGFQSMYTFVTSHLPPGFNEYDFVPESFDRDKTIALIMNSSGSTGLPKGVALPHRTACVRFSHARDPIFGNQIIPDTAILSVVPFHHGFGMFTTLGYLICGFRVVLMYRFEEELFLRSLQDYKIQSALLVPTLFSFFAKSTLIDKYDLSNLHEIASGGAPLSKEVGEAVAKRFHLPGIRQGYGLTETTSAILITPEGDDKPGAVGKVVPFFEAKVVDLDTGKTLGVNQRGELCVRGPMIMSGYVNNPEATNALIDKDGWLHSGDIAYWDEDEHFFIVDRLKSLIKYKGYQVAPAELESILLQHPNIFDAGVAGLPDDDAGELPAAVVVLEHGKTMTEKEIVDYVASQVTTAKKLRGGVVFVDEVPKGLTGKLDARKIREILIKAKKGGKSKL

[2] = molecular target: adenylate kinase from S. acidocaldarius (Sulfolobus acidocaldarius, UniProt P35028); experiment: Inhibition of reporter adenylate kinase by Ap5a, ATP detected with luciferin/luciferase
Chain of adenylate kinase from S. acidocaldarius (P35028 whole entry): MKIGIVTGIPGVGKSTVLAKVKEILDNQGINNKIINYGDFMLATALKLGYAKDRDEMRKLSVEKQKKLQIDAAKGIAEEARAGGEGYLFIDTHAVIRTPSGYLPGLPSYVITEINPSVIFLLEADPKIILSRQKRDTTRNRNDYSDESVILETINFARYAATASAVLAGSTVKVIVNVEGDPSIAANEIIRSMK
Experimental: (§1) The reporter adenylate kinases from S. acidocaldarius or T. maritima were purified as described previously. Rabbit myokinase (muscle adenylate kinase) was obtained from Sigma. 100 ng of each enzyme was incubated with the inhibitor at the concentrations shown in reaction buffer (15 mM MgAc, 10 mM tris, 1 mM EDTA pH 7.75) for 5 minutes. ADP was added to a final concentration of 70 μM and the reaction incubated before addition of luciferin and luciferase.

[3] = molecular target: T2, adenylate kinase from T. maritima (Thermotoga maritima, UniProt Q9X1I8); experiment: as above
T2 sequence (Q9X1I8 1-220): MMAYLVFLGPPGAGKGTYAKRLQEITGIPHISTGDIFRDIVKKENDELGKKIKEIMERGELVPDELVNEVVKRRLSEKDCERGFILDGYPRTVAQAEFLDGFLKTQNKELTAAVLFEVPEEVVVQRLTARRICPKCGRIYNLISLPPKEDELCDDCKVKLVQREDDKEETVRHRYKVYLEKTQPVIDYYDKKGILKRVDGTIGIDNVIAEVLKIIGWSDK
Experimental: as §1

[4] = molecular target: T3, Rabbit myokinase (muscle adenylate kinase) (Oryctolagus cuniculus, UniProt P00569); experiment: Inhibition of non-reporter (endogenous) tissue kinase by Ap5a, ATP detected with luciferin/luciferase
T3 sequence (P00569 1-194): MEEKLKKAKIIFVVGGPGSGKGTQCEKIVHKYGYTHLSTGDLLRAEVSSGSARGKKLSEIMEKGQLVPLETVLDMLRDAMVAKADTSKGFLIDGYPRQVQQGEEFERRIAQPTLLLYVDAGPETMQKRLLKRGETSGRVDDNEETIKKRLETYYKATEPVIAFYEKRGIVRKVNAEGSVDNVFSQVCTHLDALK
Experimental: as §1

Nc1ncnc2c1ncn2[C@@H]1O[C@H](COP(=O)(O)OP(=O)(O)OP(=O)(O)OP(=O)(O)OC[C@H]2O[C@@H](n3cnc4c(N)ncnc43)[C@H](O)[C@@H]2O)[C@@H](O)[C@H]1O [Ap4A, Diadenosine tetraphosphate] was tested, and the “distinguishing bacterial and archaeal reporter adenylate kinases from enzyme of fungal origin (yeast AK)” value [1] was “do not allow for an assay to distinguish”.
With Nc1ncnc2c1ncn2[C@@H]1O[C@H](COP(=O)(O)OP(=O)(O)OP(=O)(O)OP(=O)(O)OP(=O)(O)OC[C@H]2O[C@@H](n3cnc4c(N)ncnc43)[C@H](O)[C@@H]2O)[C@@H](O)[C@H]1O [Ap5A, Diadenosine pentaphosphate pentasodium salt] the “effect on the activity of the luciferase” value (luciferase) was “does not have a detrimental effect”, the “distinguishing bacterial and archaeal reporter adenylate kinases from enzyme of fungal origin (yeast AK)” value [1] was “can still be used to distinguish; also recorded: discriminates reporter kinase from non-reporter kinase” and the IC50 [2] was 10.4 µM. It also gave an IC50 [3] of 4.3 µM and an IC50 [4] of 0.06 µM.
For Diadenosine hexaphosphate [Ap6A], the “distinguishing bacterial and archaeal reporter adenylate kinases from enzyme of fungal origin (yeast AK)” value [1] was “do not allow for an assay to distinguish”.
